Source: PMC7176092, “Development of the first in vivo GPR17 ligand through an iterative drug discovery pipeline: A novel disease-modifying strategy for multiple sclerosis” (PLoS ONE, 2020)
Values joined by “and” are separate entries in the source; they are usually repeats but may differ in a detail not shown here. Identical values can stand only once. Like-named read-outs stand apart in the source and are kept apart here.

Experiments:
[1] = Single dose time course study in plasma and brain, 10 mg/kg subcutaneous; assay type: in vivo, mouse; details: 10 mg/kg s.c. single dose, C57BL/6 male mice
Procedure: Afterwards, the presence of the top compound in the brain was assessed in a single dose time course study consisting of a subcutaneous administration of a 10 mg/kg dose (15% Ethanol, 85% PEG400) to 24 naïve C57BL/6 male mice. Eight time-points (n = 3/time-point) were drawn over 24 hours after dosing. Each animal was sampled for blood collection at two time-points (the first via a tail vein, the second via cardiac puncture under anaesthesia). Blood samples were collected and centrifuged to prepare plasma according to standard procedures and stored at approximately -20°C, pending analysis (n = 48 samples). The brain of each animal was collected at sacrifice and analysed alongside plasma samples for compound quantification (n = 24 samples). Plasma and brain homogenate samples were analysed for test compound quantification using an optimised method based on protein precipitation followed by HPLC-MS/MS analysis. The results for test substance in plasma and brain homogenates were subjected to non-compartmental PK analysis using WinNonlin Phoenix v.6.3 for generation of appropriate pharmacokinetic parameters to be reported along with graphical representation of the mean plasma concentration profiles over time.

M5 = target: T1, M5 (Homo sapiens, UniProt P08912); experiment: Binding assay M5; details: 100 nM
T1 construct: Eurofins Cerep (external service)
T1 sequence (P08912 1-532): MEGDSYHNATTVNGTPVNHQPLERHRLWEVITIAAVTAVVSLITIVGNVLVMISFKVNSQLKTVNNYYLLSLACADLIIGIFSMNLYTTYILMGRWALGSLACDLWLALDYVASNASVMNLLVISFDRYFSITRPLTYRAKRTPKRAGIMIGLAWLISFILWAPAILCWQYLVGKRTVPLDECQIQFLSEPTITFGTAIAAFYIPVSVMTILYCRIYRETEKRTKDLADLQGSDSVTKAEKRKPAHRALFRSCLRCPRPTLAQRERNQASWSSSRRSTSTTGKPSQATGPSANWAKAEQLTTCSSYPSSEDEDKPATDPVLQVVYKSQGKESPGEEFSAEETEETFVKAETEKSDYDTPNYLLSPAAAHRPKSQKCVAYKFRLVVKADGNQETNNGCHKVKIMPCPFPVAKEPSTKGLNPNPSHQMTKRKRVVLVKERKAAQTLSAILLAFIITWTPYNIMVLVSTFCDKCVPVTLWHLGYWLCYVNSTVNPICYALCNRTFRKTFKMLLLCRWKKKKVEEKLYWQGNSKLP

ADR2A = target: T2, ADR2A (Homo sapiens, UniProt P08913); experiment: Binding assay ADR2A; details: 100 nM
T2 construct: Eurofins Cerep (external service)
T2 sequence (P08913 1-465): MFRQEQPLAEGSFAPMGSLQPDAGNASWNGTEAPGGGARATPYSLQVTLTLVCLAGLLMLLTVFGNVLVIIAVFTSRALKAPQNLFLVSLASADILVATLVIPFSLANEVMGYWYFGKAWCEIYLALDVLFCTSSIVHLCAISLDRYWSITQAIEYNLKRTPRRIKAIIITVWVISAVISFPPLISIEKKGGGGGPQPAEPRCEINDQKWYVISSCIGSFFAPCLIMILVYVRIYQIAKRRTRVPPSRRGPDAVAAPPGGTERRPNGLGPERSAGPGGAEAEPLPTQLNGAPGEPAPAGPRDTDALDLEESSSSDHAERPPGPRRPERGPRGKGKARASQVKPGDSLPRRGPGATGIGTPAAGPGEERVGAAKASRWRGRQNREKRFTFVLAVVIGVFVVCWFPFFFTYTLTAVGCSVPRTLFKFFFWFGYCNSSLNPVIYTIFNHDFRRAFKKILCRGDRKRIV

mGluR5 = target: T3, mGluR5 (Homo sapiens, UniProt P41594); experiment: Binding assay mGluR5; details: 100 nM
T3 construct: Eurofins Cerep (external service)

ADR1D = target: T4, ADR1D (Homo sapiens, UniProt P25100); experiment: Binding assay ADR1D; details: 100 nM
T4 construct: Eurofins Cerep (external service)
T4 sequence (P25100 1-572): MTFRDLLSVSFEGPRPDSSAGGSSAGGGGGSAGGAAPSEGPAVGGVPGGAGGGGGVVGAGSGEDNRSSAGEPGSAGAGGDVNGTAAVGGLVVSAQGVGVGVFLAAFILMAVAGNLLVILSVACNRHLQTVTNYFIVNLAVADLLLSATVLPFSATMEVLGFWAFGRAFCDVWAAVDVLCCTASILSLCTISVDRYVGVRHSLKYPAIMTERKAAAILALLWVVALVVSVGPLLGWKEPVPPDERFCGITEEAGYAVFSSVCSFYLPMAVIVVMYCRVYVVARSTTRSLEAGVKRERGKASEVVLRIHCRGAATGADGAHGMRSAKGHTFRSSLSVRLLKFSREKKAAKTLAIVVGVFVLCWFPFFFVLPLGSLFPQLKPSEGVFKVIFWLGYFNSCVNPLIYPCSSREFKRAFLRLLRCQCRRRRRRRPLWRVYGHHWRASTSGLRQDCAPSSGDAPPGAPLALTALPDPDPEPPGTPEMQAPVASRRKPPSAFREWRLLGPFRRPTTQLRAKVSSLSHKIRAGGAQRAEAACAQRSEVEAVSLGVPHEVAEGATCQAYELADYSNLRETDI

CCR10 = target: T5, CCR10 (Homo sapiens, UniProt P46092); experiment: Cellular functional assay CCR10
T5 sequence (P46092 1-362): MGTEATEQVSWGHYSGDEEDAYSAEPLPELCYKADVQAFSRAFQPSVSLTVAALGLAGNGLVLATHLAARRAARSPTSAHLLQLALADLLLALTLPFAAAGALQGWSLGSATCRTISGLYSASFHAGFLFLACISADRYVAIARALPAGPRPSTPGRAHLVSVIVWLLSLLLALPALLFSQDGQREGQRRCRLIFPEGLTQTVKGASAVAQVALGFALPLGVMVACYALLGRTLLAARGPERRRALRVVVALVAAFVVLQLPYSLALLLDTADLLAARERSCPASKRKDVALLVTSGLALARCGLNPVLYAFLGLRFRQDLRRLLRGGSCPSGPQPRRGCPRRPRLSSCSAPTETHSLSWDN

[2] = mean of 2, read-out: % Of control specific binding, Mean
[3] = read-out: % Inhibition of control specific binding
[4] = single replicates 1 and 2, 0.1 µM
[5] = single replicates 1 and 2, read-out: % Of control specific binding

T3 sequence (P41594 21-1212): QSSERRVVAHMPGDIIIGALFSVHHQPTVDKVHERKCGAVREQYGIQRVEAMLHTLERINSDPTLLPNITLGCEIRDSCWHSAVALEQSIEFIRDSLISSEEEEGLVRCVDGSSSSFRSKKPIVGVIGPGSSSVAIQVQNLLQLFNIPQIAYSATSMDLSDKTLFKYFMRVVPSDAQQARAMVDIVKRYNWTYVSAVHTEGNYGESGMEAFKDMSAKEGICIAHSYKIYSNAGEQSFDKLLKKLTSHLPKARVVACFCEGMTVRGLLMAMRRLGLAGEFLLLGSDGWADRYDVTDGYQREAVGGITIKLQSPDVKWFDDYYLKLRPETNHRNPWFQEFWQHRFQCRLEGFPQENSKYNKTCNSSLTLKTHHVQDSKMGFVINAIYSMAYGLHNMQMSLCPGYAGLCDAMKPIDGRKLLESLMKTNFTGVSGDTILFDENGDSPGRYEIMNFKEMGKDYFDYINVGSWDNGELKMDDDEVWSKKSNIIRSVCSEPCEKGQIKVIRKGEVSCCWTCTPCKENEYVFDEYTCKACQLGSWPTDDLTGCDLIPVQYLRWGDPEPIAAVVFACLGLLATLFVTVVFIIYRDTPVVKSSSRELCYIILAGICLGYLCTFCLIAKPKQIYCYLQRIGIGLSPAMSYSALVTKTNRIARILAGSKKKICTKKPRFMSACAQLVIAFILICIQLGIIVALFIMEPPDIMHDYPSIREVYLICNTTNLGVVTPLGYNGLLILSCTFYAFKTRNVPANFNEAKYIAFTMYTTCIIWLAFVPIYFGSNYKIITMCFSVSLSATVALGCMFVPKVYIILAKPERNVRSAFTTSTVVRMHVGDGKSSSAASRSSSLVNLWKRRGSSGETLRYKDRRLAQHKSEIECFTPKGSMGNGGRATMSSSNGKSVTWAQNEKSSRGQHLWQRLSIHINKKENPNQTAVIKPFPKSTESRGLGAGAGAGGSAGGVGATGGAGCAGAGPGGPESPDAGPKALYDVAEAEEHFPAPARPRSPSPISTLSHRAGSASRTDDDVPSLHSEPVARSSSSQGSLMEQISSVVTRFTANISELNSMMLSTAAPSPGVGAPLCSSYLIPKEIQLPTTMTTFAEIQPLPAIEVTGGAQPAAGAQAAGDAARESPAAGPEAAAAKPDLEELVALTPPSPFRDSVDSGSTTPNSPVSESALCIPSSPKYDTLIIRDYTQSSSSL

In the case of `Cc1ccc(-c2nnc(SCC(=O)Nc3nccs3)[nH]2)cc1` [Compound 9], the Tlast ([1]; brain) is reported as 6.00 h, the AUC(0-t) ([1]; mouse, sc, brain) is reported as 205 ng·h/mL and the Cmax ([1]; mouse, sc, brain) is reported as 270 ng/mL. For the same compound, the Tmax ([1]; mouse, sc, brain) was 15 min, the concentration at 6 h ([1]; mouse, sc, brain, read-out: Clast) was 5.8 ng/mL and the AUC(0-t) ([1]; mouse, sc, plasma) was 3930 ng·h/mL. It also gave a Cmax ([1]; mouse, sc, plasma) of 6520 ng/mL, a Tmax ([1]; mouse, sc, plasma) of 15 min and a concentration at 8 h ([1]; mouse, sc, plasma, read-out: Clast) of 17.4 ng/mL. It also gave a Tlast ([1]; plasma) of 8.00 h, a remaining activity at 0.1 µM (M5; [2]) of 97.4% and an inhibition at 0.1 µM (M5; [3]) of 3%. For the same compound, the “% Of control specific binding” value (M5; [4]) was 105.1%, the remaining activity at 0.1 µM (M5; [5]) was 89.7% and the remaining activity at 0.1 µM (ADR2A; [2]) was 99.9%. For the same compound, the inhibition at 0.1 µM (ADR2A; [3]) was 0%, the “% Of control specific binding” value (ADR2A; [4]) was 99.5% and the remaining activity at 0.1 µM (ADR2A; [5]) was 100%. The remaining activity at 0.1 µM (mGluR5; [2]) was 104%, the inhibition at 0.1 µM (mGluR5; [3]) was -4% and the “% Of control specific binding” value (mGluR5; [4]) was 106.8%. For the same compound, the remaining activity at 0.1 µM (mGluR5; [5]) was 102%, the remaining activity at 0.1 µM (ADR1D; [2]) was 101% and the inhibition at 0.1 µM (ADR1D; [3]) was -1%. The “% Of control specific binding” value (ADR1D; [4]) was 90.2% and 111.5%, the “Agonist Response (% of Control)” value (CCR10; antagonist effect, 100 nM, single replicates 1st and 2nd, 0.1 µM) was 90.0% and the inhibition at 0.1 µM (CCR10; read-out: % Inhibition of control agonist response) was -0.9%. It also gave an activity at 0.1 µM (CCR10; read-out: Agonist Response (% of Control), Mean, antagonist effect, 100 nM, mean of 2) of 87.7% and an activity at 0.1 µM (CCR10; read-out: Agonist Response (% of Control), antagonist effect, 100 nM, single replicates 1st and 2nd) of 85.4%.
